{
  "source": "patent US10988477B2",
  "about": "(Merck Patent GmbH, priority 2018, dated 2021)",
  "data": [
    {"molecular_target": "GCN2 kinase (Homo sapiens, UniProt Q9P2K8)", "sequence (Q9P2K8 whole entry)": "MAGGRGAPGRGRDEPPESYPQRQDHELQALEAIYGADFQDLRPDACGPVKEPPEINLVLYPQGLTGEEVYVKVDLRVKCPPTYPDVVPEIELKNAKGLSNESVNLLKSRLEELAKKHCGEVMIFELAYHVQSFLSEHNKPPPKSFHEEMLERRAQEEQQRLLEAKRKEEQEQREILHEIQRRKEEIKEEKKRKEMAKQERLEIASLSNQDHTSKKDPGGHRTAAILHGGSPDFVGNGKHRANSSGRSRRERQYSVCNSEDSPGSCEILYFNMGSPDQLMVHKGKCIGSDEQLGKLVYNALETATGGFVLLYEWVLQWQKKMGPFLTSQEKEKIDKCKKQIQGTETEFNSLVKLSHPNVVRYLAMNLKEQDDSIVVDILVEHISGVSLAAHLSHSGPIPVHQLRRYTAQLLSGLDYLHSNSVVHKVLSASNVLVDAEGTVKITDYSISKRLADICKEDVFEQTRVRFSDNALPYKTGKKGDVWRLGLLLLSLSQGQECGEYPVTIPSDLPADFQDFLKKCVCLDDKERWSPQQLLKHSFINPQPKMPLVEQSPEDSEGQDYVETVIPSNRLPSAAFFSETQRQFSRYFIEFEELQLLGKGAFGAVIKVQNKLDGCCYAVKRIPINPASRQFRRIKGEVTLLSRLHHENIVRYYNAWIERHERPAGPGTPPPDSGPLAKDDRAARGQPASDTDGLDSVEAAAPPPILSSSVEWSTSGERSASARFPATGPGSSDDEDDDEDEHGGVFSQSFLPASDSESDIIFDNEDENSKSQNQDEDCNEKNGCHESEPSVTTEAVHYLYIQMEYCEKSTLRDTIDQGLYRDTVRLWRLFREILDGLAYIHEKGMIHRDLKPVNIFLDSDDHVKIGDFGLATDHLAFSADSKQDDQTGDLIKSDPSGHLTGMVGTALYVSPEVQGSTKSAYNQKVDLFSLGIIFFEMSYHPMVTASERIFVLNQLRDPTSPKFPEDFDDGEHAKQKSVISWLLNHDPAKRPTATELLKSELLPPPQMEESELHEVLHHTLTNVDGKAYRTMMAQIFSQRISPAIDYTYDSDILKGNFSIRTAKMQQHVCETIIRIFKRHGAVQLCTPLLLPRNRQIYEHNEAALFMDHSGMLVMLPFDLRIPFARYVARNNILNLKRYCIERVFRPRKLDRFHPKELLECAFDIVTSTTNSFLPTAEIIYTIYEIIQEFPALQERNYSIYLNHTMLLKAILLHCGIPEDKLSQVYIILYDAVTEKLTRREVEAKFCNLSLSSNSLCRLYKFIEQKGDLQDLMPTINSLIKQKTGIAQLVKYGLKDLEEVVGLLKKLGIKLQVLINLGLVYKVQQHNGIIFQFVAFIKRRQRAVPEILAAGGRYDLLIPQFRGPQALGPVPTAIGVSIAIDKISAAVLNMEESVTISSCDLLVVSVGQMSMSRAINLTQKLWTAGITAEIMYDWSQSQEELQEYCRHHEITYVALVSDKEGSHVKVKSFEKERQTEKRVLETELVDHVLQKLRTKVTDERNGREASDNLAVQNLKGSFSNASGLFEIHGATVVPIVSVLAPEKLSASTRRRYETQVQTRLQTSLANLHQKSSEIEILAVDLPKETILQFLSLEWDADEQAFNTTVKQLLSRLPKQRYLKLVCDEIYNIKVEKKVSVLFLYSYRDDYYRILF", "assay": "GCN2 enzyme inhibition assay (Transcreener ADP2 fluorescence polarization)", "assay_type": "biochemical", "settings": "Enzyme activity for compounds of Formula IV; Ki(app), 280 μM ATP, 25° C.", "protocol": "(§1) Compounds were screened for their ability to inhibit GCN2 kinase activity using a Transcreener® ADP^2 fluorescence polarization assay that detects ADP levels (BellBrook Labs, WI). Assays were carried out in a buffer consisting of 25 mM Tris-HCl (pH 7.5), 50 mM NaCl, 10 mM MgCl2 and 1 mM DTT. Final substrate concentrations were 280 μM ATP and 200 μM peptidic substrate ([…]-OH [(RS)7], Bachem, Switzerland). Assays were carried out at 25° C. in the presence of a (typical) final concentration of 4 nM GCN2 kinase. An assay buffer containing GCN2 kinase and (RS)7 was prepared. 4.7 μL of this stock solution was placed per well of a black, low volume, 384-well microtitre plate (e.g. catalogue number 3676, Corning Inc., NY). To this was added […] of DMSO containing serial dilutions of the test compound (typical final concentrations of test compound were 0 to 8 μM). The plate was incubated for 10 minutes at 25° C. prior to the addition of 4.7 μL of ATP stock buffer to initiate the enzyme reaction. The reaction was allowed to proceed for 1 hour at 25° C., prior to the addition of 10 μL detection buffer (consisting of appropriate concentrations of ADP^2 antibody and ADP Alexa633 tracer in 1× stop and detect buffer as supplied by BellBrook Labs). […] Percentage inhibition of enzyme activity was then calculated at each compound dose. IC50 and Ki(app) (using known assay and kinetic parameters) values were calculated from percentage inhibition data using a non-linear, tight-binding algorithm. All data analysis was undertaken using the Screener® software package (Genedata, Switzerland).", "units": {"Ki": "µM"}, "values": [
      {"smiles": "Clc1cn2c(-c3nccc(N4CCNC(c5cn[nH]c5)C4)n3)cnc2cn1", "note": "(single isomer, unassigned) [IV-238, 3-(4-(3-(1H-Pyrazol-4-yl)piperazin-1-yl)pyrimidin-2-yl)-6-chloroimidazo[1,2-a]pyrazine]", "Ki": "0.01 to 0.1"},
      {"smiles": "FC(F)(F)c1cn2c(-c3nccc(N4CCC(CN5CCOCC5)CC4)n3)cnc2cn1", "note": "[IV-510, 4-((1-(2-(6-(Trifluoromethyl)imidazo[1,2-a]pyrazin-3-yl)pyrimidin-4-yl)piperidin-4-yl)methyl)morpholine]", "Ki": "0.1 to 1"},
      {"smiles": "NC(=O)c1cn2c(-c3nccc(N4CC(=O)N5CCCC5C4)n3)cnc2cn1", "note": "(centres unmarked) [IV-268, 3-(4-(4-Oxohexahydropyrrolo[1,2-a]pyrazin-2(1H)-yl)pyrimidin-2-yl)imidazo[1,2-a]pyrazine-6-carboxamide]", "Ki": "0.1 to 1"},
      {"smiles": "Cc1n[nH]c(C)c1C1CCCN(c2ccnc(-c3cnc4cnc(C(F)(F)F)cn34)n2)C1", "note": "(single isomer, unassigned) [IV-476, 3-(4-(3-(3,5-Dimethyl-1H-pyrazol-4-yl)piperidin-1-yl)pyrimidin-2-yl)-6-(trifluoromethyl)imidazo[1,2-a]pyrazine]", "Ki": "< 0.01"},
      {"smiles": "O=C1NCCN1C1CCCN(c2ccnc(-c3cnc4cnc(C(F)(F)F)cn34)n2)C1", "note": "(centres unmarked) [IV-584, 1-(1-(2-(6-(Trifluoromethyl)imidazo[1,2-a]pyrazin-3-yl)pyrimidin-4-yl)piperidin-3-yl)imidazolidin-2-one]", "Ki": "0.1 to 1"},
      {"smiles": "CC1NCCN(c2ccnc(-c3cnc4cnc(C(F)F)cn34)n2)C1c1cn[nH]c1", "note": "(centres unmarked) [IV-455, 6-(Difluoromethyl)-3-(4-(3-methyl-2-(1H-pyrazol-4-yl)piperazin-1-yl)pyrimidin-2-yl)imidazo[1,2-a]pyrazine]", "Ki": "0.1 to 1"},
      {"smiles": "FC(F)(F)c1cn2c(-c3nccc(N4CCC(C5CCOCC5)C4)n3)cnc2cn1", "note": "(centres unmarked) [IV-507, 3-(4-(3-(Tetrahydro-2H-pyran-4-yl)pyrrolidin-1-yl)pyrimidin-2-yl)-6-(trifluoromethyl)imidazo[1,2-a]pyrazine]", "Ki": "0.1 to 1"},
      {"smiles": "NS(=O)(=O)C1CCCN(c2ccnc(-c3cnc4cnc(C(F)(F)F)cn34)n2)C1", "note": "(centres unmarked) [IV-536, 1-(2-(6-(Trifluoromethyl)imidazo[1,2-a]pyrazin-3-yl)pyrimidin-4-yl)piperidine-3-sulfonamide]", "Ki": "0.1 to 1"},
      {"smiles": "OCCC1CCCCN1c1ccnc(-c2cnc3cnc(C(F)(F)F)cn23)n1", "note": "(centres unmarked) [IV-438, 2-(1-(2-(6-(Trifluoromethyl)imidazo[1,2-a]pyrazin-3-yl)pyrimidin-4-yl)piperidin-2-yl)ethan-1-ol]", "Ki": "0.1 to 1"},
      {"smiles": "CC(=O)N1CCN(c2ccnc(-c3cnc4cnc(-c5ccncc5)cn34)n2)CC1", "note": "[IV-285, 1-(4-(2-(6-(Pyridin-4-yl)imidazo[1,2-a]pyrazin-3-yl)pyrimidin-4-yl)piperazin-1-yl)ethan-1-one]", "Ki": "0.01 to 0.1"},
      {"smiles": "CC1(C(N)=O)CCCN(c2ccnc(-c3cnc4cnc(C(F)(F)F)cn34)n2)C1", "note": "(centres unmarked) [IV-539, 3-Methyl-1-(2-(6-(trifluoromethyl)imidazo[1,2-a]pyrazin-3-yl)pyrimidin-4-yl)piperidine-3-carboxamide]", "Ki": "0.1 to 1"},
      {"smiles": "NS(=O)(=O)c1ccc(C(=O)N[C@H]2CCCN(c3ccnc(-c4cnc5cnc(C(F)(F)F)cn45)n3)C2)o1", "note": "[IV-735]", "Ki": "> 1"},
      {"smiles": "NC(=O)N1CCN(c2ccnc(-c3cnc4cnc(C(F)(F)F)cn34)n2)CC1", "note": "[IV-612, 4-(2-(6-(Trifluoromethyl)imidazo[1,2-a]pyrazin-3-yl)pyrimidin-4-yl)piperazine-1-carboxamide]", "Ki": "0.1 to 1"},
      {"smiles": "CC1C(c2cn[nH]c2)OCCN1c1ccnc(-c2cnc3cnc(C(F)(F)F)cn23)n1", "note": "(single isomer, unassigned) [IV-315, 3-Methyl-2-(1H-pyrazol-4-yl)-4-(2-(6-(trifluoromethyl)imidazo[1,2-a]pyrazin-3-yl)pyrimidin-4-yl)morpholine]", "Ki": "0.01 to 0.1"},
      {"smiles": "CC1(C)COCCN1c1ccnc(-c2cnc3cnc(C(F)(F)F)cn23)n1", "note": "[IV-532, 3,3-Dimethyl-4-(2-(6-(trifluoromethyl)imidazo[1,2-a]pyrazin-3-yl)pyrimidin-4-yl)morpholine]", "Ki": "0.1 to 1"},
      {"smiles": "CC1CNC(c2cn[nH]c2)CN1c1ccnc(-c2cnc3cnc(C(F)(F)F)cn23)n1", "note": "(single isomer, unassigned) [IV-333, 3-(4-(2-Methyl-5-(1H-pyrazol-4-yl)piperazin-1-yl)pyrimidin-2-yl)-6-(trifluoromethyl)imidazo[1,2-a]pyrazine]", "Ki": "0.01 to 0.1"},
      {"smiles": "FC(F)(F)c1cn2c(-c3nccc(N4CCCC(n5ccnc5)C4)n3)cnc2cn1", "note": "(centres unmarked) [IV-255, 3-(4-(3-(1H-Imidazol-1-yl)piperidin-1-yl)pyrimidin-2-yl)-6-(trifluoromethyl)imidazo[1,2-a]pyrazine]", "Ki": "0.01 to 0.1"},
      {"smiles": "NC(=O)C1CN(c2ccnc(-c3cnc4cnc(C(F)(F)F)cn34)n2)CCO1", "note": "(centres unmarked) [IV-599, 4-(2-(6-(Trifluoromethyl)imidazo[1,2-a]pyrazin-3-yl)pyrimidin-4-yl)morpholine-2-carboxamide]", "Ki": "0.1 to 1"},
      {"smiles": "FC(F)(F)c1cn2c(-c3nccc(N4CCC(Nc5cn[nH]c5)C4)n3)cnc2cn1", "note": "(centres unmarked) [IV-606, N-(1-(2-(6-(Trifluoromethyl)imidazo[1,2-a]pyrazin-3-yl)pyrimidin-4-yl)pyrrolidin-3-yl)-1H-pyrazol-4-amine]", "Ki": "0.1 to 1"}
    ]},
    {"molecular_target": "GCN2 kinase (Homo sapiens, UniProt Q9P2K8)", "assay": "GCN2 enzyme inhibition assay (Transcreener ADP2 fluorescence polarization)", "assay_type": "biochemical", "settings": "compounds of Formula II; 280 μM ATP, 4 nM GCN2 kinase", "protocol": "as §1", "units": {"Ki": "µM"}, "values": [
      {"smiles": "N#CC1CN(c2cc(-c3cnc4ccc(C(F)F)nn34)ncn2)CCO1", "note": "(centres unmarked) [II-531, 4-(6-(6-(Difluoromethyl)imidazo[1,2-b]pyridazin-3-yl)pyrimidin-4-yl)morpholine-2-carbonitrile]", "Ki": "0.01 to 1"},
      {"smiles": "CC1C(N=S(C)(C)=O)CCCN1c1cc(-c2cnc3ccc(C(F)F)nn23)ncn1", "note": "(single isomer, unassigned) [II-581, ((1-(6-(6-(Difluoromethyl)imidazo[1,2-b]pyridazin-3-yl)pyrimidin-4-yl)-2-methylpiperidin-3-yl)imino)dimethyl-λ^6-sulfanone]", "Ki": "0.01 to 1"},
      {"smiles": "CS(=O)(=O)NCC1CCCN(c2cc(-c3cnc4ccc(C(F)F)nn34)cc(NCCO)n2)C1", "note": "(centres unmarked) [II-91, N-((1-(4-(6-(Difluoromethyl)imidazo[1,2-b]pyridazin-3-yl)-6-((2-hydroxyethyl)amino)pyridin-2-yl)piperidin-3-yl)methyl)methanesulfonamide]", "Ki": "< 0.01"},
      {"smiles": "CS(=O)(=O)NCc1cccc(-c2cc(-c3cnc4ccc(C(F)F)nn34)ncn2)c1", "note": "[II-576, N-[[3-[6-[6-(Difluoromethyl)imidazo[1,2-b]pyridazin-3-yl]pyrimidin-4-yl]phenyl]methyl]methanesulfonamide]", "Ki": "< 0.01"},
      {"smiles": "OC1CCCC2C1NCCN2c1cc(-c2cnc3ccc(C(F)F)nn23)ncn1", "note": "(centres unmarked) [II-628, 1-[6-[6-(Difluoromethyl)imidazo[1,2-b]pyridazin-3-yl]pyrimidin-4-yl]-3,4,4a,5,6,7,8,8a-octahydro-2H-quinoxalin-5-ol]", "Ki": "0.01 to 1"},
      {"smiles": "CC1C(CNS(C)(=O)=O)C(F)(F)C(C)CN1c1cc(-c2cnc3ccc(C(F)F)nn23)ncn1", "note": "(single isomer, unassigned) [II-468, N-((1-(6-(6-(Difluoromethyl)imidazo[1,2-b]pyridazin-3-yl)pyrimidin-4-yl)-4,4-difluoro-2,5-dimethylpiperidin-3-yl)methyl)methanesulfonamide]", "Ki": "0.01 to 1"},
      {"smiles": "FC(F)c1ccc2ncc(-c3ccnc(N4CCCC(c5c[nH]cn5)C4)c3)n2n1", "note": "(centres unmarked) [II-749]", "Ki": "0.01 to 1"},
      {"smiles": "CN1CCN(c2cc(-c3cnc4ccc(C(F)F)nn34)ncn2)CC1CCO", "note": "(centres unmarked) [II-514, 2-(4-(6-(6-(Difluoromethyl)imidazo[1,2-b]pyridazin-3-yl)pyrimidin-4-yl)-1-methylpiperazin-2-yl)ethan-1-ol]", "Ki": "0.01 to 1"},
      {"smiles": "CC(C)(O)C1CCCN(c2cc(-c3cnc4ccc(C(F)F)nn34)ncn2)C1", "note": "(single isomer, unassigned) [II-614, 2-(1-(6-(6-(Difluoromethyl)imidazo[1,2-b]pyridazin-3-yl)pyrimidin-4-yl)piperidin-3-yl)propan-2-ol]", "Ki": "0.01 to 1"},
      {"smiles": "CCS(C)(=O)=NC1CC(C)CN(c2cc(-c3cnc4ccc(C(F)F)nn34)ncn2)C1", "note": "(centres unmarked) [II-635, ((1-(6-(6-(Difluoromethyl)imidazo[1,2-b]pyridazin-3-yl)pyrimidin-4-yl)-5-methylpiperidin-3-yl)imino)(ethyl)(methyl)-λ^6-sulfanone]", "Ki": "0.01 to 1"},
      {"smiles": "CC1CC(N=S(C)(=O)C2CC2)CN(c2cc(-c3cnc4ccc(C(F)F)nn34)ncn2)C1", "note": "(single isomer, unassigned) [II-646, Cyclopropyl((1-(6-(6-(difluoromethyl)imidazo[1,2-b]pyridazin-3-yl)pyrimidin-4-yl)-5-methylpiperidin-3-yl)imino)(methyl)-λ^6-sulfanone]", "Ki": "0.01 to 1"},
      {"smiles": "CC1C(NS(C)(=O)=O)CCCN1c1cc(-c2cnc3ccc(C(F)F)nn23)ncn1", "note": "(centres unmarked) [II-603, N-(1-(6-(6-(Difluoromethyl)imidazo[1,2-b]pyridazin-3-yl)pyrimidin-4-yl)-2-methylpiperidin-3-yl)methanesulfonamide]", "Ki": "0.01 to 1"}
    ]},
    {"molecular_target": "GCN2 kinase (Homo sapiens, UniProt Q9P2K8)", "assay": "GCN2 enzyme inhibition assay (Transcreener ADP2 fluorescence polarization)", "assay_type": "biochemical", "settings": "compounds of Formula IV; 280 μM ATP, 4 nM GCN2 kinase", "protocol": "as §1", "units": {"IC50": "µM"}, "values": [
      {"smiles": "Cc1n[nH]cc1[C@@H]1C[C@H](C)CN(c2nccc(-c3cnc4cnc(C(F)(F)F)cn34)n2)C1", "note": "[IV-759, 3-(2-((3S,5S)-3-methyl-5-(3-methyl-1H-pyrazol-4-yl)piperidin-1-yl)pyrimidin-4-yl)-6-(trifluoromethyl)imidazo[1,2-a]pyrazine]", "IC50": "0.01 to 1"}
    ]}
  ]
}
